According to article PMC6349922:

Test: RCM stapling (C=C formation) of two bridgehead alkenyl ether chains of 7-azabicyclo[2.2.1]heptane amide dimers; Grubbs I, 5-7 mol% (about 2.5-3 mol% for 36), added dropwise over 10-15 min, reflux under Ar
Details: CH2Cl2, 1.0 mM, 40.0 °C

CC(C)(C)OC(=O)N1[C@H]2CC[C@@]13COCCCC=CCCCOCC14CCC(CC1)N4C(=O)[C@H]2C3 [1 -> 6 (C8)]
ring closure, isolated yield (from C=CCCCOCC12CCC(CC1)N2C(=O)[C@H]1C[C@@]2(COCCCC=C)CC[C@@H]1N2C(=O)OC(C)(C)C, 18-membered ring, 8.0 h): 73%

CC(C)(C)OC(=O)N1[C@H]2CC[C@@]13COCCCCC=CCCCOCC14CCC(CC1)N4C(=O)[C@H]2C3 [2 -> 7 (C9)]
ring closure, isolated yield (from C=CCCCCOC[C@@]12CC[C@@H]([C@@H](C(=O)N3C4CCC3(COCCCC=C)CC4)C1)N2C(=O)OC(C)(C)C, 19-membered ring, 4.0 h): 80%

CC(C)(C)OC(=O)N1[C@H]2CC[C@@]13COCCCCC=CCCCCOCC14CCC(CC1)N4C(=O)[C@H]2C3 [3 -> 8 (C10)]
ring closure, isolated yield (from C=CCCCCOCC12CCC(CC1)N2C(=O)[C@H]1C[C@@]2(COCCCCC=C)CC[C@@H]1N2C(=O)OC(C)(C)C, 20-membered ring, 3.0 h): 94%

CC(C)(C)OC(=O)N1[C@H]2CC[C@@]13COCCCCCC=CCCCCOCC14CCC(CC1)N4C(=O)[C@H]2C3 [4 -> 9 (C11)]
ring closure, isolated yield (from C=CCCCCCOC[C@@]12CC[C@@H]([C@@H](C(=O)N3C4CCC3(COCCCCC=C)CC4)C1)N2C(=O)OC(C)(C)C, 21-membered ring, 2.0 h): 87%

CC(C)(C)OC(=O)N1[C@H]2CC[C@@]13COCCCCCC=CCCCCCOCC14CCC(CC1)N4C(=O)[C@H]2C3 [5 -> 10 (C12)]
ring closure, isolated yield (from C=CCCCCCOCC12CCC(CC1)N2C(=O)[C@H]1C[C@@]2(COCCCCCC=C)CC[C@@H]1N2C(=O)OC(C)(C)C, 22-membered ring, 16.0 h): 64%

Cc1ccc(S(=O)(=O)N2[C@H]3CC[C@@]24COCCCCC=CCCCCOCC25CCC(CC2)N5C(=O)[C@H]3C4)cc1 [36 -> Ts-8 (C10, N-Ts)]
ring closure, isolated yield (from C=CCCCCOCC12CCC(CC1)N2C(=O)[C@H]1C[C@@]2(COCCCCC=C)CC[C@@H]1N2S(=O)(=O)c1ccc(C)cc1, 20-membered ring, 1.0 h): 91%
